Measured values reported in article PMC4389562, “Antigiardial activity of novel triazolyl-quinolone-based chalcone derivatives: when oxygen makes the difference” (Frontiers in Microbiology, 2015).
Where two headings read alike, the source gives them in different places.

Columns and labels:
[1] = test system: Caco-2 cells; assay: Counter-screen on Caco-2 cells, ATP level by luminescence (ATPlite), 48 h incubation; type: cell-based, human; details: atmospheric O2, 5% CO2, 48 h, 37 °C
Method: Trophozoites of G. intestinalis strain WB clone C6 (ATCC No. 50803TM) were cultured axenically at 37^∘C in 25-cm^2 flasks containing Diamond’s TYI-S-33 medium supplemented with 10% bovine calf serum, 1 mg/mL bovine bile, 0.1 g/L streptomycin and 100 U/mL penicillin. […] Human epithelial colorectal adenocarcinoma (Caco-2) cells were grown in 25-cm^2 flasks in EMEM supplemented with 1% (v/v) non-essential amino acids, 2 mM glutamine, 5% (v/v) fetal bovine serum, 0.1 g/L streptomycin, and 100 U/mL penicillin.
Cells were detached with 0.5% trypsin-EDTA and seeded in sterile 96-well white clear-bottom plates at the same density of Giardia trophozoites and at increasing concentration of the compound to be tested, as described above. The assays were carried out exactly as reported for the Giardia trophozoites, except that the plates were incubated (still at 37^∘C) at atmospheric O2 level, 5% CO2, and 95% humidity. Each drug concentration was tested in at least seven replicates. MTZ was used as an internal […] control in the assay. Following 48 h incubation with each compound, according to the manufacturer instructions, 100 μL of the ATPlite^TM luminescence assay system (Perkin Elmer) was added to each well for one-step lysis and ATP level detection by luminescence.
Luminometric data were calibrated using ATP standard curves and normalized to the ATP level measured in control DMSO-treated cells (taken as 100%). The measured ATP level percentage was plotted as a function of the compound concentration and the half-maximal inhibitory concentration (IC50) was obtained by fitting the resulting titration profile to the Hill equation ([Goutelle et al., 2008]). The selectivity index (SI) of the compounds was then calculated as the ratio between the IC50 value measured on human cells over the value determined on Giardia trophozoites (SI = IC50,Caco-2/IC50,Giardia).
Selectivity of the newly synthesized compounds toward Giardia was assessed by running a counter-screen on human epithelial Caco-2 cells. […] This allowed us to calculate the compounds SI, defined as the ratio between the IC50 value measured on human cells over the value determined on Giardia trophozoites.

[2] = test system: Giardia intestinalis trophozoites; assay: Drug susceptibility of Giardia trophozoites, ATP level by luminescence (BacTiter-Glo), 48 h incubation, anaerobic or microaerobic; type: cell-based, Giardia intestinalis strain WB clone C6; details: for IC50: 48 h, 37 °C, ATP level; for fold more efficient than MTZ against Giardia: anaerobic conditions, relative to MTZ; for selectivity ratio at 48 h: human (Caco-2 cells) versus Giardia intestinalis, Caco-2, SI = IC50,Caco-2/IC50,Giardia; for Selectivity (IC50,Caco/IC50,Giardia) Anaerobiosis / Selectivity (IC50,Caco/IC50,Giardia) Microaerobiosis: SI = IC50,Caco-2/IC50,Giardia
Method: Trophozoites of G. intestinalis strain WB clone C6 (ATCC No. 50803TM) were cultured axenically at 37^∘C in 25-cm^2 flasks containing Diamond's TYI-S-33 medium supplemented with 10% bovine calf serum, 1 mg/mL bovine bile, 0.1 g/L streptomycin and 100 U/mL penicillin. Typically, 50 ml medium was inoculated with 25 × 10^6 cells and after 2 days cells were harvested by chilling the flasks on ice for 30 min for drug susceptibility assays. […] The assays were performed following the procedure described in [Bahadur et al. (2014)], using sterile 96-well white clear-bottom plates. […] Each drug concentration was tested in at least six replicates. MTZ was used as an internal positive control in the assay. The microtiter plates were then incubated at 37^∘C under anaerobic or microaerobic conditions, ensured by the Anaerocult® A or the Anaerocult® […] (Merck), respectively. […] Following 48 h incubation with the compound to be tested, 100 μL of the BacTiter-Glo^TM Microbial Cell Viability Assay System reagent (Promega) was added to each well for one-step lysis and ATP level detection. Plates were then incubated at room temperature for 15 min and ATP levels finally detected by luminescence on a plate reader (Wallac Victor3 1420 Multilabel Counter, PerkinElmer). Luminometric data were calibrated using ATP standard curves and normalized to the ATP level measured in control DMSO-treated cells (taken as 100%). The measured ATP level percentage was plotted as a function of the compound concentration and the half-maximal inhibitory concentration (IC50) was obtained by fitting the resulting titration profile to the Hill equation ([Goutelle et al., 2008]). The selectivity index (SI) of the compounds was then calculated as the ratio between the IC50 value measured on human cells over the value determined on Giardia trophozoites (SI = IC50,Caco-2/IC50,Giardia). The antigiardial activity of the novel compounds 23-67 was tested under both anaerobic and microaerobic conditions. According to ([Dunn et al., 2010]; [Bahadur et al., 2014]), susceptibility of Giardia trophozoites to increasing concentrations of each compound was assessed based on ATP level determination by luminescence. Dose-response curves for each compound were obtained after 48 h-incubation and compared to the data collected under identical conditions with MTZ, the drug of choice for treatment of giardiasis. […] Typical dose-response curves are shown in Figure 2, whereas the IC50 values measured for the synthetic compounds and MTZ under anaerobic and microaerobic conditions are reported in Table 1. […] Under anaerobic conditions, 18 out of the 45 synthetic compounds were as effective as MTZ or more under identical conditions (see Table 1).

[3] = Giardia duodenalis, anaerobic conditions (Anaerocult A), read-out: Giardia (anaerobiosis) IC50
[4] = Giardia duodenalis, microaerobic conditions (~5% O2, Anaerocult C), read-out: Giardia (microaerobiosis) IC50
[5] = Giardia under anaerobiosis, read-out: Selectivity (IC50,Caco/IC50,Giardia) Anaerobiosis
[6] = Giardia under microaerobiosis, read-out: Selectivity (IC50,Caco/IC50,Giardia) Microaerobiosis
[7] = anaerobic conditions (Anaerocult A), read-out: Giardia (anaerobiosis) IC50
[8] = microaerobic conditions (~5% O2, Anaerocult C), read-out: Giardia (microaerobiosis) IC50

| melting point [°C] | Selectivity (IC50,Caco/IC50,Giardia) Anaerobiosis ([2]; Giardia under anaerobiosis) | Selectivity (IC50,Caco/IC50,Giardia) Microaerobiosis ([2]; Giardia under microaerobiosis) | Compound | IC50 ([1]; Homo sapiens, Caco-2, 48 h) [µM] | IC50 [2, 3] [µM] | IC50 [2, 4] [µM] | fold more efficient than MTZ against Giardia [2] | selectivity ratio at 48 h [2, 5] | selectivity ratio at 48 h [2, 6] | IC50 [1] [µM] | IC50 [2, 7] [µM] | IC50 [2, 8] [µM] |
| --- | --- | --- | --- | --- | --- | --- | --- | --- | --- | --- | --- | --- |
| 238 to 240 |  |  | O=C(/C=C/c1cc2ccccc2n(Cc2cn(-c3ccc(F)cc3)nn2)c1=O)c1ccc(Br)cc1 [Compound 45] | 16.7 | 1.1 | 0.5 | three to fourfold | 15.2 | 33.4 |  |  |  |
| 192 to 194 |  |  | COc1cccc(C(=O)/C=C/c2cc3ccccc3n(Cc3cn(-c4ccc(C)cc4)nn3)c2=O)c1 [Compound 39] |  | 2.9 | 1.3 |  |  |  |  |  |  |
|  | ≥ 2 | ≥10 | O=C(/C=C/c1cc2ccccc2n(Cc2cn(-c3ccc(Cl)cc3)nn2)c1=O)c1ccc(Br)cc1 [Compound 54] |  |  |  |  |  |  | ≥ 20 | 9.2 | 1.9 |
| 215 to 217 |  |  | COc1cccc(C(=O)/C=C/c2cc3ccccc3n(Cc3cn(-c4ccc(Cl)cc4)nn3)c2=O)c1 [Compound 57] | 14.7 | 6.6 | 1.1 |  | 2.2 | 11.3 |  |  |  |
| 202 to 204 |  |  | O=C(/C=C/c1cc2ccccc2n(Cc2cn(-c3ccc(F)cc3)nn2)c1=O)c1ccc(F)cc1 [Compound 43] | 7 | 1.2 | 0.3 | three to fourfold | 5.8 | 23.3 |  |  |  |
|  | 2,5 | 15,8 | Cc1ccc(C(=O)/C=C/c2cc3ccccc3n(Cc3cn(-c4ccc(F)cc4)nn3)c2=O)cc1 [Compound 46] |  |  |  |  |  |  | 6.3 | 2.5 | 0.4 |
|  | ≥2 | ≥10 | COc1ccc(-n2cc(Cn3c(=O)c(/C=C/C(=O)c4ccc(Br)cc4)cc4ccccc43)nn2)cc1 [Compound 27] |  |  |  |  |  |  | ≥ 20 | 9.6 | 2 |
| 202 to 204 |  |  | O=C(/C=C/c1cc2ccccc2n(Cc2cn(-c3ccccc3)nn2)c1=O)c1ccc(F)cc1 [Compound 61] | 18.2 | 5.3 | 0.8 |  | 3.4 | 22.8 |  |  |  |
|  |  |  | Cc1ncc([N+](=O)[O-])n1CCO [MTZ, metronidazole, reference compound] | > 100 | 3.4 | ≥ 25 |  | ≥ 29 |  |  |  |  |
| 215 to 217 |  |  | Cc1ccc(-n2cc(Cn3c(=O)c(/C=C/C(=O)c4ccc(F)cc4)cc4ccccc43)nn2)cc1 [Compound 34] | 9.4 | 3.8 | 1.2 |  | 2.5 | 7.8 |  |  |  |
|  | 6,9 | 34,3 | COc1ccccc1C(=O)/C=C/c1cc2ccccc2n(Cc2cn(-c3ccc(C)cc3)nn2)c1=O [Compound 38] |  |  |  |  |  |  | 13.7 | 2 | 0.4 |
|  | ≥3 | ≥38 | COc1ccc(C(=O)/C=C/c2cc3ccccc3n(Cc3cn(-c4ccc(F)cc4)nn3)c2=O)cc1 [Compound 49] |  |  |  |  |  |  | ≥ 50 | 13 | 1.3 |
| 210 to 212 |  |  | COc1ccc(C(=O)/C=C/c2cc3ccccc3n(Cc3cn(-c4ccc(Cl)cc4)nn3)c2=O)cc1 [Compound 58] | 19.7 | ≥ 100 | ≥ 30 |  | ≤ 0.2 | ≤ 0.7 |  |  |  |
| 216 to 218 |  |  | O=C(/C=C/c1cc2ccccc2n(Cc2cn(-c3ccc(Cl)cc3)nn2)c1=O)c1ccc(F)cc1 [Compound 52] | 23.9 | 8.9 | 1.2 |  | 2.7 | 19.9 |  |  |  |
| 220 to 222 |  |  | COc1cccc(C(=O)/C=C/c2cc3ccccc3n(Cc3cn(-c4ccc(F)cc4)nn3)c2=O)c1 [Compound 48] | ≥ 60 | 7 | 1.6 |  | ≥ 8 | ≥ 37 |  |  |  |
|  | ≥ 7 | ≥ 50 | O=C(/C=C/c1cc2ccccc2n(Cc2cn(-c3ccccc3)nn2)c1=O)c1ccc(Br)cc1 [Compound 63] |  |  |  |  |  |  | ≥ 50 | 6.3 | 1 |
| 217 to 219 |  |  | Cc1ccc(C(=O)/C=C/c2cc3ccccc3n(Cc3cn(-c4ccc(Cl)cc4)nn3)c2=O)cc1 [Compound 55] | 20 | 8.7 | 1.1 |  | 2.3 | 18.2 |  |  |  |
|  | 3,4 | 19,1 | Cc1ccc(-n2cc(Cn3c(=O)c(/C=C/C(=O)c4cccc(F)c4)cc4ccccc43)nn2)cc1 [Compound 33] |  |  |  |  |  |  | 13.4 | 4 | 0.7 |
|  | 5,8 | 26 | O=C(/C=C/c1cc2ccccc2n(Cc2cn(-c3ccc(F)cc3)nn2)c1=O)c1ccccc1F [Compound 41] |  |  |  | three to fourfold |  |  | 5.2 | 0.9 | 0.2 |
|  | ≥33 | ≥153 | COc1ccc(-n2cc(Cn3c(=O)c(/C=C/C(=O)c4cccc(OC)c4)cc4ccccc43)nn2)cc1 [Compound 30] |  |  |  |  |  |  | ≥ 200 | 5.9 | 1.3 |
|  |  | ≥6 | COc1ccc(-n2cc(Cn3c(=O)c(/C=C/C(=O)c4cccc(F)c4)cc4ccccc43)nn2)cc1 [Compound 24] |  |  |  |  |  |  | ≥ 50 | ≥ 100 | 8.4 |
